Measured values reported in US6620936B2, “9-aminoacridine derivatives and process for the preparation thereof” (Samjin Pharmaceutical Co., Ltd., priority 1998, dated 2003).
Values after ≈ are worked out from the molar mass of the structure shown.

How the values were obtained:
[1] = test system: A549 (human non-small lung cell); test: In vitro antitumor effect against human tumor cell lines, SRB assay; assay type: cell-based; details: 48 hours, A549 cells
Method: (§1) In vitro antitumor effect against human tumor cell lines.
A. Tumor cell lines : A549 (human non-small lung cell)
(§2) a. Human solid tumor cell lines, A549(non-small lung cell), SKMEL-2(melanoma), HCT-15(colon), SKOV-3(ovarian) and XF-498(CNS) were cultured in 5% CO2, incubators using the RPMI 1640 media containing 10% FBS at 37° C., while with transfer-culturing successively once or twice per week. Cell cultures were dissolved in a solution of 0.25% trysin and 3 mmol CDTA PBS(−) to separate the cells sticked on the culture media.
(§3) b. 5×10^3˜2×10^4 cells were added into each well of 96-well plate and cultured in 5% CO2, incubator at 37° C. for 24 hours.
(§4) c. Each sample drug was dissolved in a little DMSO and diluted with the used medium to a prescribed concentration for experiment, while the final concentration of DMSO was adjusted below 0.5%.
(§5) d. Medium of each well cultured for 24 hours as above b. was removed by aspiration. Each 200 μl of drug samples prepared in c. was added into each well and tine wells were cultured for 48 hours. Tz (time zero) plates were collected at the point of time drugs were added.
(§6) e. According to the SRB assay method, cell fixing with TCA, staining with 0.4% SRB solution, washing with 1% acetic acid and elution of dye with 10 mmol Tris solution were carried out on Tz plates and culture-ended plates, and then, OD values were measured at 520 nm.
(§7) a. Time zero (Tz) value was determined with measuring the SRB protein value at the point of time drugs were added.
(§8) b. Control value (C) was determined with the OD value of an well untreated with drug.
(§9) c. Drug-treated test value (T) was determined with the OD value of drug-treated well.
(§10) d. Effects of drugs were estimated with growth stimulation, net growth inhibition and net killing calculated from Tz, C and T values.
(§11) e. If T≧Tz, cellular response function was calculated by 100×(T−Tz)/(C−Tz), and, if T≦Tz, by 100×(T−Tz)/Tz.

[2] = test system: XF-498 (human CNS); test: as above; assay type: cell-based; details: 48 hours, XF-498 cells
Method: as §1, §2, §3, §4, §5, §6, §7, §8, §9, §10, §11

[3] = test system: HCT-15 (human colon); test: as above; assay type: cell-based; details: 48 hours, HCT 15 cells
Method: as §1, §2, §3, §4, §5, §6, §7, §8, §9, §10, §11

[4] = test system: SKMEL-2 (human melanoma); test: as above; assay type: cell-based; details: 48 hours, SK-MEL-2 cells
Method: as §1, §2, §3, §4, §5, §6, §7, §8, §9, §10, §11

[5] = test system: SKOV-3 (human ovarian); test: as above; assay type: cell-based; details: 48 hours, SK-OV-3 cells
Method: as §1, §2, §3, §4, §5, §6, §7, §8, §9, §10, §11

[6] = test system: P388 (mouse lymphoid neoplasma cell); test: In vitro antitumor effects against animal leukemia cells, dye exclusion assay; assay type: cell-based; details: 48 hours, trypan blue dye exclusion, read-out: P388, concentration showing 50% cell growth inhibition (IC50)
Method: In vitro antitumor effects against animal leukemia cells.
Tumor cell lines: P388 (mouse lymphoid neoplasma cell)
B. Method: Dye Exclusion Assay.
1) The concentration of P388 cells being cultured in RPMI 1640 media containing 10% FBS was adjusted to 1×10^6 cells/ml.
2) Each sample drug of a concentration diluted in the ratio of log dose was added into cell culture media and cultured at 37° C. for 48 hours in […] incubator, and then viable cell number was measured by dye exclusion test using trypan blue.

[7] = biological target: Topoisomerase II; test: Inhibition effects against the Topoisomerase II activities (DNA relaxation assay, DNA cleavage assay); assay type: biochemical; details: supercoiled pBR322 DNA substrate, 30 minutes at 37° C.
Method: Inhibition effects against the Topoisomerase II activities
The present compounds were tested for inhibition of Topoisomerase II activity by means of the relaxation assay using supercoiled pBR322 DNA as the substrate. Topo II and a sample inhibitor were added to a reaction system (50 mmol Tris-HCl, pH 7.5, 50 mmol KCl, 20 mmol MgCl2, 0.5 mmol EDTA, 2 mmol ATP, 60 μg/ml BSA) containing supercoiled pBR322 DNA and reacted for 30 minutes at 37° C. Then, a quarter by volume of Stop buffer (5% SDS, 50 mmol EDTA, 30% glycerol, 0.1 mg/ml xylene cyanol, 0.1 mg/ml BPB) was added to the reaction system to stop the reaction. The resulting product went through electrophoresis on 0.7% agarose gel and was stained by ethidium bromide solution. Mobility of DNA was measured under ultraviolet rays.
Topo II and a sample inhibitor were added to cleavage buffer (30 mmol Tris-HCl, pH 7.5, 60 mmol KCl, 10 mmol MgCl2, 15 mmol β-mercaptoethanol, 30 μg /ml BSA) containing supercoiled pBR322 DNA and allowed to react for 30 minutes at 37° C. Then, […] by 1% was added to the reaction system to stop the reaction. Then, proteinase K was added thereto up to the concentration of 50 μg/ml and allowed to react for 30 minutes at 56° C. The reaction product was treated with phenol/chloroform to purify DNA, and the obtained DNA was loaded on agarose gel electrophoresis, transferred to nitrocellulose membrane and hybridized with probe DNA labelled with radioisotope. Then, the nitrocellulose membrane was covered with an X-ray film and exposed to be sensitized and developed, whereby the degree of cleavage of DNA was measured.

[8] = Acute toxicity test (LD50), Litchfield-Wilcoxon method; details: mouse, in vivo, ip; male ICR mice, observed 14 days
Method: Acute Toxicity Test (LD50):
a) Method: Litchfield-Wilcoxon Method.
6-week-old ICR mice(male 30±2.0 g) were fed freely with solid feed and water at room temperature, 23±1° C. and at humidity 60±5%. Sample drugs were injected into the abdominal cavities of mice. Each group comprised 6 mice. Observed during 14 days, external appearances and life or death thereof were recorded, and also, visible lesions were observed from dead mice by dissection. LD50 value was calculated by Litchfield-wilcoxon method.

Row | Structure (SMILES) | ED50 A 549 [1] [µg/mL] | ED50 XF-498 [2] [µg/mL] | ED50 HCT 15 [3] [µg/mL] | ED50 SK-MEL-2 [4] [µg/mL] | ED50 SK-OV-3 [5] [µg/mL] | IC50 [6] [µg/mL] | IC50 (μg/ml), inhibition of Topoisomerase II activity [7] [µg/mL] | LD50 at 14 days [8] [mg/kg]
1 | N.N.[Cl][Pt][Cl] [Cisplatin, reference compound] | 0.81 | 0.77 | 3.03 | 0.71 | 0.71 |  |  | 
2 | Nc1cc(COC(=O)Nc2ccccc2)cc(Nc2c3ccccc3nc3ccccc23)c1 [Example 1, [3-(acridin-9-yl)amino-5-amino]benzyl N-phenylcarbamate] | 0.96 (≈ 2.21 µM) | 0.44 (≈ 1.01 µM) | 0.57 (≈ 1.31 µM) | 0.49 (≈ 1.13 µM) | 1.15 (≈ 2.65 µM) | 0.9 (≈ 2.07 µM) | 1 | 
3 | COc1cccc(NC(=O)OCc2cc(N)cc(Nc3c4ccccc4nc4ccccc34)c2)c1 [Example 2, [3-(acridin-9-yl)amino-5-amino]benzyl N-(3-methoxyphenyl)carbamate] |  | 0.71 (≈ 1.53 µM) | 0.97 (≈ 2.09 µM) |  | 0.68 (≈ 1.46 µM) |  | 3 | 
4 | COc1cc(NC(=O)OCc2cc(N)cc(Nc3c4ccccc4nc4ccccc34)c2)cc(OC)c1 [Example 3, [3-(acridin-9-yl)amino-5-amino]benzyl N-(3,5-dimethoxyphenyl)carbamate] |  |  |  |  |  |  | 3 | 
5 | COc1cc(NC(=O)OCc2cc(N)cc(Nc3c4ccccc4nc4ccccc34)c2)cc(OC)c1OC [Example 4, [3-(acridin-9-yl)amino-5-amino]benzyl N-(3,4,5-trimethoxyphenyl) carbamate] | 0.19 (≈ 0.362 µM) | 0.23 (≈ 0.438 µM) | 0.24 (≈ 0.458 µM) | 0.20 (≈ 0.381 µM) | 0.19 (≈ 0.362 µM) |  | 5 | 
6 | Cc1cc(C)cc(NC(=O)OCc2cc(N)cc(Nc3c4ccccc4nc4ccccc34)c2)c1 [Example 6, [3-(acridin-9-yl)amino-5-amino]benzyl N-(3,5-dimethylphenyl) carbamate] | 0.72 (≈ 1.56 µM) | 0.37 (≈ 0.8 µM) | 0.33 (≈ 0.713 µM) | 0.40 (≈ 0.865 µM) | 0.36 (≈ 0.778 µM) | 0.8 (≈ 1.73 µM) | 3 | 
7 | Nc1cc(COC(=O)Nc2cc(F)cc(F)c2)cc(Nc2c3ccccc3nc3ccccc23)c1 [Example 12, [3-(acridin-9-yl)amino-5-amino]benzyl N-(3,5-difluorophenyl) carbamate] |  |  |  |  |  | 1.2 (≈ 2.55 µM) | 0.5 | 150
8 | Nc1cc(COC(=O)Nc2cccc(Cl)c2)cc(Nc2c3ccccc3nc3ccccc23)c1 [Example 14, [3-(acridin-9-yl)amino-5-amino]benzyl N-(3-chlorophenyl) carbamate] |  |  |  |  |  |  | 1 | 
9 | COc1cc(NC(=S)OCc2cc(N)cc(Nc3c4ccccc4nc4ccccc34)c2)cc(OC)c1 [Example 18, [3-(acridin-9-yl)amino-5-amino]benzyl N-(3,5-dimethoxyphenyl)thiocarbamate] |  |  |  |  |  |  | 3 | 
10 | COc1cc(NC(=S)OCc2cc(N)cc(Nc3c4ccccc4nc4ccccc34)c2)cc(OC)c1OC [Example 19, [3-(acridin-9-yl)amino-5-amino]benzyl N-(3,4,5-trimethoxyphenyl)thiocarbamate] |  |  |  |  |  |  | 5 | 
11 | COc1cccc(NC(=O)OCc2cccc(Nc3c4ccccc4nc4ccccc34)c2)c1 [Example 20, 3-(acridin-9-yl)aminobenzyl N-(3-methoxyphenyl) carbamate] |  |  |  |  |  |  | 3 | 
12 | COc1cc(NC(=O)OCc2cccc(Nc3c4ccccc4nc4ccccc34)c2)cc(OC)c1 [Example 21, 3-(acridin-9-yl)aminobenzyl N-(3,5-dimethoxyphenyl) carbamate] |  |  |  |  |  |  | 3 | 
13 | COc1cc(NC(=O)OCc2cccc(Nc3c4ccccc4nc4ccccc34)c2)cc(OC)c1OC [Example 22, 3-(acridin-9-yl)aminobenzyl N-(3,4,5-trimethoxyphenyl) carbamate] |  |  |  |  |  |  | 5 | 
14 | CC=Nc1cc(CO)cc(Nc2c3ccccc3nc3ccccc23)c1 [Example 35, 3-(acridin-9-yl)amino-5-(ethylideneamino)phenylmethanol] |  |  |  |  |  |  | 5 | 
15 | CCC=Nc1cc(CO)cc(Nc2c3ccccc3nc3ccccc23)c1 [Example 36, 3-(acridin-9-yl)amino-5-(propylideneamino)phenylmethanol] |  |  |  |  |  |  | 3 | 
16 | CCCC=Nc1cc(CO)cc(Nc2c3ccccc3nc3ccccc23)c1 [Example 37, 3-(acridin-9-yl)amino-5-(butylideneamino)phenylmethanol] | 0.90 (≈ 2.44 µM) | 0.36 (≈ 0.974 µM) | 0.35 (≈ 0.947 µM) | 0.89 (≈ 2.41 µM) | 0.93 (≈ 2.52 µM) |  | 5 | 
17 | C[C@H](N)C(=O)Nc1cc(CO)cc(Nc2c3ccccc3nc3ccccc23)c1 [Example 45, N-[3-(acridin-9-yl)amino-5-(hydroxymethyl)phenyl](2S)-2-aminopropaneamide] | 0.01 (≈ 0.0259 µM) | 0.88 (≈ 2.28 µM) | 0.86 (≈ 2.23 µM) | 0.25 (≈ 0.647 µM) | 0.21 (≈ 0.543 µM) |  | 0.5 | 
18 | N[C@@H](Cc1ccccc1)C(=O)Nc1cc(CO)cc(Nc2c3ccccc3nc3ccccc23)c1 [Example 46, N-[3-(acridin-9-yl)amino-5-(hydroxymethyl)phenyl](2S)-2-amino-3-phenylpropaneamide] |  |  |  |  |  |  | 3 | 
